Data: ChEMBL document CHEMBL1151713, “S-alkenyl cysteine sulfoxide and its antioxidant properties from Allium cepa var. tropeana (red onion) seeds” (J Nat Prod, 2008)

Tests used:
[1] = Antioxidant activity by ferric reducing antioxidant power assay; format: functional
[2] = tested on: Radical scavenging activity; assay: Antioxidant activity assessed as DPPH radical scavenging activity by Brand-Williams method; format: functional

| SMILES | Activity [1] [µM] | Activity [2] [µM] |
| --- | --- | --- |
| C/C=C/CC[S+]([O-])C[C@@H](N)C(=O)O (stereo partly specified) | 178 | 107 |
| O=C1O[C@H]([C@@H](O)CO)C(O)=C1O | 824 | 903 |
| Cc1cc(C(C)(C)C)c(O)c(C(C)(C)C)c1 | 677 | 637 |
